Results: US20070066580A1, “Novel aldosterone antagonists and uses thereof” (Recordati Ireland Limited, priority 2005, published 2007)

Experiments:
[1] = target: T1, ligand binding domain of the human mineralocorticoid receptor (hMR LBD) (Homo sapiens, UniProt P08235); experiment: Mineralocorticoid receptor (MR) in vitro competitive binding assay, [3H]aldosterone displacement; details: IR^TOTAL = sum of IR^AR/MR, IR^ER/MR, IR^GR/MR, IR^PR/MR
T1 construct: made in house; host or cells: Sf9 insect cells (baculovirus, pFastBac)
T1 sequence (P08235 729-984): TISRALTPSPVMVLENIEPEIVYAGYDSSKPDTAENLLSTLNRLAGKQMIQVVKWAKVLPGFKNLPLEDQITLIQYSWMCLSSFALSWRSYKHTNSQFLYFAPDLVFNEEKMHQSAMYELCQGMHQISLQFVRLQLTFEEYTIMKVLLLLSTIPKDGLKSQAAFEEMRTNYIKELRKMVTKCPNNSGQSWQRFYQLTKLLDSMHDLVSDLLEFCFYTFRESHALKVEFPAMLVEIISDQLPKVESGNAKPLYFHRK
Procedure: Mineralocorticoid receptor (MR) binding assay: Spodoptera furgiperda (Sf9) insect cells (ATCC accession number CRL-1711) were maintained in culture in EX-CELL™ 420 serum free medium (JRH Biosciences, Inc.) at 27° C.
A recombinant baculovirus containing nucleotide sequences encoding the ligand binding domain of the human mineralocorticoid receptor (hMR) cloned into the pFastBac™ vector was generated using the Bac-to-Bac® Baculovirus Expression System Kit (Invitrogen) following the manufacturer's instructions. This recombinant baculovirus contains nucleotides 2401 through 3168 (SEQ ID NO: 13) of hMR, providing for expression of the ligand binding domain (LBD), amino acid residues 729-984 (SEQ ID NO: 14), of hMR (hMR LBD). Cultured Sf9 insect cells were transfected with this recombinant baculovirus following the manufacturer's instructions.
For the binding assay, a crude lysate of the hMR LBD-expressing insect cells was prepared. The crude lysate was diluted 12.5-fold with binding buffer (20 mM Tris-HCl pH 7.4, 1 mM EDTA, 1 mM dithiothreitol, 20 mM sodium tungstate, 50 mM KCl and 10% glycerol).
For the negative control sample, the diluted lysate was incubated with a 10 nM final concentration of the radioligand [1,2,6,7-^3H] aldosterone (Amersham Biosciences, catalogue # 434) for 3.5 h at 4° C. For test compounds and the positive control sample, the diluted lysate was incubated with various concentrations of test compound or with a 20 μM final concentration of spironolactone (Sigma, S-3378) as a reference compound for 45 min on ice, and was then incubated with a 10 nM final concentration of [1,2,6,7-^3H] aldosterone for 3.5 h at 4° C.
Using a CellHarvester (PerkinElmer, formerly Packard Biosciences), receptor/ligand complexes were retained on 96-well GF/B filters (PerkinElmer, formerly Packard Biosciences) while free radioligand passed through the filters. Scintillation counting of GF/B filter plates was performed using a TopCount NXT (PerkinElmer, formerly Packard Biosciences) to quantitate the amount of [1,2,6,7-^3H] aldosterone bound to the hMR LBD.
The IC50 of a test compound was determined from the concentration of test compound giving half-maximal displacement as obtained by nonlinear least-squares curve fitting to a one-site binding sigmoidal model using Prism 3.0 (Graph Pad Software, Inc., San Diego, US). The calculated IC50 values represent the average values calculated from the results of 1-3 experiments carried out in duplicate.
IC50 and inhibitory ratio calculations: To provide a measure of the potency of each test compound as an antagonist of MR, the IC50 of each test compound (IC50^Test) for ligand binding to MR and the IC50 of the known MR antagonists eplerenone (IC50^Ep) and spironolactone (IC50^Sp) for ligand binding to MR were used to calculate an IC50 ratio (RIC50) according to the following equations: RIC50^Ep/Test=IC50^Ep/IC50^Test and RIC50^Sp/Test=IC50^Sp/IC50^Test.
These individual inhibitory ratios were used to calculate a total inhibitory ratio (IR^TOTAL) according to the following equation: IR^TOTAL=IR^AR/MR+IR^ER/MR+IR^GR/MR+IR^PR/MR. B. Results and Discussion

[2] = target: T2, GAL4 DBD-hMR LBD fusion protein (Homo sapiens, UniProt P08235); experiment: Cell-based luciferase assay, agonist mode (CV-1 cells); details: 10 μM of compound
T2 construct: expressed in transfected cells; host or cells: CV-1 cells (African green monkey kidney), transient co-transfection with pCMX-GAL4-based vector and Galp3TKLuc reporter
T2 sequence (P08235 with tags, fused parts or gaps limits assumed): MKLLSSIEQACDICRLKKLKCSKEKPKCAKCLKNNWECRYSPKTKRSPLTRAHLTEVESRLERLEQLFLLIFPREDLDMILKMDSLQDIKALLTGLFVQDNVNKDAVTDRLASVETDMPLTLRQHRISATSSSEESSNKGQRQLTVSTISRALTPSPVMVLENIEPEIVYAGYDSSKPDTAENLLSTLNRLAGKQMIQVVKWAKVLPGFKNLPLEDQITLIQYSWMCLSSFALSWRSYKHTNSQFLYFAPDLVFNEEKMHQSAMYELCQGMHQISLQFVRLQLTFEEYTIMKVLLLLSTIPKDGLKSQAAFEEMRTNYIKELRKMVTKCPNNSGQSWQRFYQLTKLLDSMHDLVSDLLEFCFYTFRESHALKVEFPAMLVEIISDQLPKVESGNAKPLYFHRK
Text: GAL4 DBD-hMR LBD fusion protein expression vector: A pCMX-GAL4-based vector was used for the expression of a fusion protein composed of the amino acids 1-147 of the DNA binding domain of Saccharomyces cerevisiae GAL4 (GAL4 DBD) (SEQ ID NO: 16) and amino acid residues 729-984 of the ligand binding domain of human mineralocorticoid receptor (hMR LBD) (SEQ ID NO: 14). The expression vector contained an expression cassette of the nucleotide sequence for the GAL4 DBD (See SEQ ID NO: 19) ligated to nucleotides 2401 through 3168 of the human mineralocorticoid (hMR) receptor (SEQ ID NO: 13).
In vitro cell culture: CV-1 cells (African green monkey kidney cell line, ATCC accession number CCL-70) were maintained in culture in 90% DMEM medium supplemented by 9% FCS and 1% Penicillin-Streptomycin-L-Glutamine at 37° C. under 8.5% CO2.
These cells were transiently co-transfected with the GAL4 DBD-hMR LBD fusion protein expression vector and the Galp3TKLuc reporter gene vector using the FuGENE 6 Transfection Reagent (Roche) according to the manufacturer's instructions.
Agonist assay: As a positive control, aldosterone (Acros Organics, catalogue # 215360050) was used at a concentration of 100 nM. The negative control sample was 90% DMEM medium supplemented by 9% charcoal-treated FCS and 1% Penicillin-Streptomycin-L-Glutamine containing 0.2% DMSO plus 0.02% ethanol. Positive control, negative control, or 10 μM final concentration of test compound was added to the cells and incubated for 24 hours at 37° C. under 8.5% CO2 before the Luciferase substrate (Promega, catalogue number #E2620) was added. After an incubation period of 5 min at RT, luminescence signals were read on a microplate reader (Molecular Devices/LJL Biosystems). Negative and positive controls were defined as 0% and 100% agonism, respectively. The agonistic potency of test compounds is given in % and was normalized to the positive and negative controls.

For `CCS[C@@H]1CC2=CC(=O)CC[C@]2(C)C2=CC[C@@]3(C)C(CC[C@@]34CCC(=O)O4)C21` (stereo partly drawn) [Example 13], the “IR^TOTAL compared with the IR^TOTAL for eplerenone” value [1] was “at least an order of magnitude greater than the IR^TOTAL for eplerenone”, the “IR^TOTAL compared with the IR^TOTAL for spironolactone” value [1] was “at least an order of magnitude greater than the IR^TOTAL for spironolactone” and the “potency for activation of MR relative to aldosterone” value [2] was “at least three orders of magnitude less potent than aldosterone”.
